12 compounds from ChEMBL document CHEMBL1201862, “PubChem BioAssay data set” (2004) can be followed below.

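Grown in 96-well plates, cells were treated for 48 hours with each compound at five concentrations. Insufficient inhibition: endpoint recorded as highest concentration tested. GI50 = concentration required for 50% inhibition of growth.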 The source made the active and inactive calls. Cut-off read from the data, not from the text of the source: active = GI50 up to about 1.1 µM and inactive = higher.

What all share (test): NCI anticancer screen, dose series, 48 h
For test [1], the system named is SK-MEL-2.
Test [2] has as its system MOLT-4.
Test [3] deals with TK-10.
Test [4] has as its system T47D.
Test [5] deals with MDA-MB-231.
Test [6] concerns EKVX.
The subject of test [7] is DU-145.
Test [8] relates to SF-295.
In test [9] the test system is LOX IMVI.
In test [10] the test system is PC-3.
The test system of test [11] is SF-539.
Test [12] relates to COLO 205.
The subject of test [13] is NCI-H460.
Test [14] concerns CAKI-1.
The test system of test [15] is NCI-H226.
Test [16] relates to A498.
Test [17] relates to HCT-116.
The subject of test [18] is SNB-75.

For the compound `Cc1sc2nc(-c3ccc(Cl)c([N+](=O)[O-])c3)c(/C=N/NC(=N)N)n2c1C`, the GI50 in test [1] was 1.32 µM (inactive); in [2], 1.5 µM (inactive); in test [3], 1.75 µM (inactive); in [4], 1.46 µM (inactive); in [5], 0.615 µM (active); in [6] it was 1.69 µM (inactive). For the same compound, the GI50 in test [7] is 1.93 µM (inactive); in test [8], 1.76 µM (inactive); in test [9] it was 0.585 µM (active); in test [10], 1.52 µM (inactive); in test [11], 1.64 µM (inactive); in [12], 0.282 µM (active). The GI50 in [13] is 1.63 µM (inactive); in test [14], 1.62 µM (inactive); in test [15], 1.61 µM (inactive); in test [16], 1.66 µM (inactive).
Consider `COC(O)C(=O)c1c2c(cc3c1CC1(Cc4cc5c(cc4C1)CCC5)C3)CCC2` (centres undefined), for which the GI50 is 16 µM (inactive) in test [1]; 8.73 µM (inactive) in test [17]; 15.8 µM (inactive) in test [2]; 17.7 µM (inactive) in test [3]; 21.9 µM (inactive) in [4]; 14.1 µM (inactive) in test [5]. Also, the GI50 was 22.2 µM (inactive) in test [6]; 19.5 µM (inactive) in [7]; 19.7 µM (inactive) in test [8]; 7.13 µM (inactive) in test [9]; 16.7 µM (inactive) in [10]; 17.3 µM (inactive) in [11]. The GI50 in test [13] is 23.6 µM (inactive); in test [14], 20.5 µM (inactive); in [16], 17.9 µM (inactive); in [18] it was 17.1 µM (inactive).
In the case of `CCCCCC(C)C[C@H]1CO[C@H](c2ccc[nH]2)N[C@H]1C(=O)OC` (some centres undefined), the GI50 in test [1], in [17], in test [2], in test [3], in test [4] and in [5] was > 100 µM (inactive) each time. Besides, the GI50 in test [6], in [7], in test [8], in test [9], in test [10] and in [11] was > 100 µM (inactive) each time. The GI50 in test [12], in test [13], in test [14] and in test [16] was > 100 µM (inactive) throughout.
In the case of `COC(=O)/C=C1\C(=O)Nc2ccc(Br)cc21`, the GI50 in [1] is 0.493 µM (active); in test [17] it was 1.36 µM (inactive); in test [2] it was 0.962 µM (active); in test [3], 1.56 µM (inactive); in [4], 2.16 µM (inactive); in test [5] it was 2.51 µM (inactive). Besides, the GI50 is 1.77 µM (inactive) in [6]; 1.86 µM (inactive) in test [7]; 2.3 µM (inactive) in test [8]; 0.804 µM (active) in [9]; 1.43 µM (inactive) in test [10]; 1.67 µM (inactive) in test [12]. For the same compound, the GI50 is 2.25 µM (inactive) in [13]; 1.04 µM (active) in test [14]; 1.72 µM (inactive) in test [15]; 5.22 µM (inactive) in test [16]; 1.99 µM (inactive) in [18].
Consider `COC(=O)C1=C2SCc3cccc(c3)CSC3=C(C(=O)OC)SC(=C(S2)S1)S3`, for which the GI50 is 32.7 µM (inactive) in test [1]; > 100 µM (inactive) in [17]; > 100 µM (inactive) in test [2]; > 100 µM (inactive) in test [3]; > 100 µM (inactive) in test [4]; 24.7 µM (inactive) in test [5]. The GI50 is > 100 µM (inactive) in [7]; > 100 µM (inactive) in test [8]; 35.5 µM (inactive) in test [10]; > 100 µM (inactive) in test [12]; > 100 µM (inactive) in test [13]; > 100 µM (inactive) in test [14]. Besides, the GI50 in test [15], in test [16] and in [18] was > 100 µM (inactive) throughout.
In the case of `COC1C(=O)N(SC)C1c1ccccc1Cl` (centres undefined), the GI50 was > 100 µM (inactive) in test [1]; 11.3 µM (inactive) in [17]; 9.62 µM (inactive) in test [2]; > 100 µM (inactive) in [3]; 27.4 µM (inactive) in [4]; 35.6 µM (inactive) in test [5]. Further, the GI50 in [6] was 24.4 µM (inactive); in [7] it was > 100 µM (inactive); in test [8], > 100 µM (inactive); in test [9] it was 42.2 µM (inactive); in [10], 86.7 µM (inactive); in test [11] it was 19.6 µM (inactive). The GI50 in [12] was 51.8 µM (inactive); in [13], > 100 µM (inactive); in test [14], 80.5 µM (inactive); in test [16], > 100 µM (inactive).
With `Clc1ccc(/C=C/c2nc(-c3ccccc3)cn3c2nc2ccccc23)cc1Cl`, the GI50 in [1] is > 100 µM (inactive); in test [17], 27.7 µM (inactive); in test [2] it was 46.9 µM (inactive); in [3] it was 56.6 µM (inactive); in [4] it was 41.7 µM (inactive); in test [5], > 100 µM (inactive). For the same compound, the GI50 in [6] is 40.3 µM (inactive); in test [7], > 100 µM (inactive); in test [9] it was 59.8 µM (inactive); in test [10], 62.4 µM (inactive); in test [11], > 100 µM (inactive); in test [12], > 100 µM (inactive). Moreover, the GI50 was 32.7 µM (inactive) in test [13], > 100 µM (inactive) in test [15] and > 100 µM (inactive) in [16].
In the case of `CC(C)[C@@H]1CC[C@@H](C)C[C@H]1OC(=O)/C=C1\C(C(=O)O[C@@H]2C[C@H](C)CC[C@H]2C(C)C)[C@H]2C=C[C@@H]1O2` (some centres undefined), the GI50 is 49.9 µM (inactive) in test [17]; 35.8 µM (inactive) in [2]; > 100 µM (inactive) in [3]; 75.2 µM (inactive) in test [4]; 87.5 µM (inactive) in [5]; 63.4 µM (inactive) in [6]. The GI50 in test [7] was 57.9 µM (inactive); in [8], 25.2 µM (inactive); in test [9] it was 34.1 µM (inactive); in test [10] it was 37.3 µM (inactive); in test [11] it was > 100 µM (inactive); in test [12] it was 64.3 µM (inactive). The GI50 in [13] was 37.9 µM (inactive); in test [14], > 100 µM (inactive); in test [15], 38.3 µM (inactive); in test [16] it was > 100 µM (inactive); in test [18], > 100 µM (inactive).
On to `C[C@]12CC[C@H]3[C@@H](CC=C4C[C@@H](N5CCCC5)CC[C@@]43C)[C@@H]1C/C(=C\c1ccc([N+](=O)[O-])cc1)[C@@H]2O`, for which the GI50 in test [1] was > 10 µM (inactive); in test [17], 16.3 µM (inactive); in test [2], 0.942 µM (active); in test [3], 17.5 µM (inactive); in test [4], 20.7 µM (inactive); in test [5], 16.2 µM (inactive). The GI50 was 17.3 µM (inactive) in [7]; 24.9 µM (inactive) in test [8]; 16.4 µM (inactive) in test [9]; 24.3 µM (inactive) in test [10]; 15.4 µM (inactive) in [11]; 16.6 µM (inactive) in test [12]. In addition, the GI50 in [13] is 28.1 µM (inactive); in [14], 13.3 µM (inactive); in test [15], 18.5 µM (inactive); in test [16], 15.3 µM (inactive).
As to `Cc1nnc(-n2c(O)cc(=O)n(-c3ccccc3)c2=S)nc1/C=C/c1ccc(N(C)C)cc1`, the GI50 in test [1] was 10.9 µM (inactive); in test [17], 11.9 µM (inactive); in test [2] it was 15.6 µM (inactive); in [3], > 39.4 µM (inactive); in test [4], 6.62 µM (inactive); in [5], > 35.6 µM (inactive). Also, the GI50 is 9.23 µM (inactive) in [6]; 26.1 µM (inactive) in test [7]; 12.9 µM (inactive) in test [8]; 4.32 µM (inactive) in [9]; 8.41 µM (inactive) in test [10]; 7.23 µM (inactive) in test [12]. Further, the GI50 in [13] is 8.79 µM (inactive); in [14] it was 5.7 µM (inactive); in [15], 32.3 µM (inactive); in test [16], 27.1 µM (inactive); in test [18] it was 4.38 µM (inactive).
Turning to `CC(=O)OC1CC[C@]2(C)C3CC[C@@]4(C)C(CCC4[C@H](C)CCCC(C)C)[C@@H]3CCC2(Br)C1` (some centres undefined), the GI50 in test [17] was 9.29 µM (inactive); in test [2], 9.98 µM (inactive); in test [3] it was 12.8 µM (inactive); in [4], 14.1 µM (inactive); in test [5] it was 13.7 µM (inactive); in [6] it was > 50 µM (inactive). For the same compound, the GI50 in test [7] is > 50 µM (inactive); in test [8], 34.8 µM (inactive); in [9], 11.6 µM (inactive); in test [10], 10.9 µM (inactive); in [11], 9.18 µM (inactive); in test [12] it was 9.62 µM (inactive). Besides, the GI50 in [13] is 39.7 µM (inactive); in [14], 9.1 µM (inactive); in test [15], > 50 µM (inactive); in test [16] it was 8.13 µM (inactive); in test [18] it was > 50 µM (inactive).
`NS(=O)(=O)c1ccc(/N=N/c2ccc(O)c(C(=O)O)c2)cc1` [SALAZOSULFAMIDE]: the GI50 in test [1] is 20.7 µM (inactive); in [17] it was > 100 µM (inactive); in test [2], > 100 µM (inactive); in test [3], > 100 µM (inactive); in test [4], > 100 µM (inactive); in test [5], > 100 µM (inactive). Besides, the GI50 in [6], in test [7], in test [8], in [10], in [12] and in test [13] was > 100 µM (inactive) each time. For the same compound, the GI50 in test [14] is > 100 µM (inactive); in test [15], > 100 µM (inactive); in test [16], > 100 µM (inactive); in test [18], 69 µM (inactive).
